Where two headings read alike, the source gives them in different places. Where only a bound is given, the exact number is not on record here.

Data set [1] has as its system climbing behavior induced by apomorphine. Nature of the data set: Anti-climbing behavior test (suppression of climbing behavior induced by apomorphine in mice). The note with it: for ED50: Mus musculus. The format is in vivo, dd strain male mice. The source says:
This activity was examined through the anti-climbing behavior test, i.e. the test for suppressing the climbing behavior induced by apomorphine in mice. A designated amount of the test compound was orally administered to several groups of dd strain male mice (bodyweight, 20 to 25 g; one group, 5 mice), and each of the animals was charged in an individual column cage of 12 cm in diameter and 14 cm in height having metal poles (each pole, 2 mm in diameter) vertically installed and arranged along the periphery with intervals of 1 cm. […]
0 All the paws were on the floor
1 Only forepaws seized the pole of the cage
2 All the paws seized the pole of the cage;
climbing behavior observed discontinu-
3 Continuous climbing behavior observed

Data set [2] in a line: Extrapyramidal activity: catalepsy inducing activity test. The note with it: mouse, in vivo; oral; catalepsy checked 1 and 4 hours after administration; strained state over 30 seconds; mice. In kind it is in vivo, dd strain male mice. The procedure:
(§1) A designated amount of the test compound was orally administered to dd strain male mice (bodyweight, 22 to 27 g), and 1 and 4 hours after the administration, catalepsy induction was checked according to the Wirth et al method. Thus, each of the animals was forced to hang its forepaws onto a metal pole of 2.5 mm in diameter horizontally situated at a height of 5 cm to keep in a strained state. The test was made with three repetitions, and the presence of at least one case in which the animal was kept in the strained state over a period of 30 seconds was deemed to have caused catalepsy.

A further data set has as its system catalepsy induction. The description is as above. In kind it is in vivo, dd strain male mice. The note with it: oral. The protocol: as §1
For data set [3] the following is noted: cited from earlier work; for side effects on clinical use, in words: conventional neuroleptics.
Where [4] appears, read: sc, subcutaneous, apomorphine 1.0 mg/kg s.c., mice, read-out: ED50, Subcutaneous administration (anti-climbing, neuroleptic activity).
Where [5] appears, read: oral, after 1 hour, apomorphine 1.0 mg/kg s.c., mice, read-out: ED50, Oral administration After 1 hour (anti-climbing, neuroleptic activity).
Setting [6] is: oral, after 4 hours, apomorphine 1.0 mg/kg s.c., mice, read-out: ED50, Oral administration After 4 hours (anti-climbing, neuroleptic activity).

On to `O=C(c1ccc(F)cc1)C1CCN(CCCCN2C(=O)[C@@H]3[C@H](C2=O)[C@H]2C=C[C@@H]3C2)CC1` [Compound No. 5, N-[4-{4-(4-Fluorobenzoyl)piperidinyl}butyl]bicyclo[2.2.1]hept-5-ene-2,3-di-exo-carboximide], for which the ED50 was less than 1 mg/kg in data set [1] (setting [4]), 1.3 mg/kg in data set [1] (setting [5]), 2.2 mg/kg in data set [1] (setting [6]) and 25 mg/kg in data set [2].
On to `O=C(CCCN1CCC(O)(c2ccc(Cl)cc2)CC1)c1ccc(F)cc1` [Haloperidol, 4-[4-(4-chlorophenyl)-4-hydroxy-1-piperidinyl]-1-(4-fluorophenyl)-1-butanone], for which the ED50 was 0.67 mg/kg in data set [1] (po, 1 h, read-out: ED50, Oral administration After 1 hour (anti-climbing, neuroleptic activity)); 0.44 mg/kg in data set [1] (po, 4 h, read-out: ED50, Oral administration After 4 hours (anti-climbing, neuroleptic activity)); 0.21 mg/kg in data set [1] (sc, read-out: ED50, Subcutaneous administration (anti-climbing, neuroleptic activity)); 3 mg/kg in data set [2]. Further, the “neuroleptic activity (anti-climbing activity), in words” value in data set [1] (route not stated) was “significant neuroleptic activity”. Further, the “extrapyramidal activity (catalepsy inducing activity), in words” value with catalepsy induction is recorded as “considerably high level of extra-pyramidal activity”. Moreover, the “side effects on clinical use, in words” value in data set [3] is “serious side effects such as catalepsy and hypotension”.
With `CN(C)CCCN1c2ccccc2Sc2ccc(Cl)cc21` [chlorpromazine, 2-chloro-10-(3-dimethylaminopropyl)phenothiazine], in data set [3], the “side effects on clinical use, in words” value is “serious side effects such as catalepsy and hypotension”.
Take `O=C1[C@@H]2[C@H]3CC[C@H](C3)[C@@H]2C(=O)N1CCCCN1CCC(c2nsc3ccccc23)CC1` [Compound No. 2, N-[4-{4-(1,2-Benzisothiazol-3-yl)-1-piperidinyl}butyl]bicyclo[2.2.1]heptane-2,3-di-exo-carboximide]: the ED50 is 3.5 mg/kg in data set [1] (setting [5]), 3.4 mg/kg in data set [1] (setting [6]) and 10 to 30 mg/kg in data set [2].
In the case of `O=C(c1ccc(F)cc1)C1CCN(CCCCN2C(=O)[C@@H]3[C@H]4CC[C@H](C4)[C@@H]3C2=O)CC1` [Compound No. 1, N-[4-{4-(4-Fluorobenzoyl)piperidinyl}butyl]bicyclo[2.2.1]heptane-2,3-di-exo-carboximide], the ED50 in data set [1] (setting [4]) is 0.12 mg/kg; in data set [1] (setting [5]), 3.7 mg/kg; in data set [1] (setting [6]) it was 21.8 mg/kg; in data set [2], 25 to 50 mg/kg.
`O=C1CC2(CCCC2)CC(=O)N1CCCCN1CCN(c2nsc3ccccc23)CC1` [Tiaspiron, 8-[4-(3-benzisothiazolyl)-1-piperazinylbutyl]-8-azaspiro[4,5]decane-7,9-dione]: the figures for the ED50 in data set [1] (setting [4]), in data set [1] (setting [5]) and in data set [1] (setting [6]) were 0.23 mg/kg, 9.4 mg/kg and 61.5 mg/kg, respectively. For the same molecule, the “extrapyramidal side effects such as catalepsy inducing activity, in words” value in data set [3] (in comparison with butyrophenone compounds such as haloperidol) is recorded as “alleviated in extrapyramidal side effects such as catalepsy inducing activity”.

These data come from US4812461A, “Imide derivatives and their use in the treatment psychosis” (Sumitomo Pharmaceuticals Company, Limited, priority 1986, dated 1989).
